# Patent EP4578449A1, “PHARMACEUTICAL COMBINATION OF FAK INHIBITOR AND MICROTUBULE INHIBITOR AND USE THEREOF” (Inxmed (Nanjing) Co., Ltd., priority 2022, dated 2024)
# What was measured:
# colon cancer CT26 cells = experiment: IN10018 and Docetaxel: microscopy and CRT/Annexin-V/PI flow cytometry; type: cell-based, mouse; details: 48 hours, IN10018 5 µM, Docetaxel 0.1 µM, alone or combined
# Procedure: CT26 cells (Institute of Cell Biology, Chinese Academy of Sciences) were cultured with RPMI-1640 (Shanghai Basalmedia, catalog number: L210KJ, batch number: F210916) + 10% FBS (Gibco, catalog number: 10099-141c, batch number: 2158737cp), and passaged twice. When the cells were in good condition, they were placed in a 24-well plate. After 24 hours of cell spreading, four groups were set up. The first group was the control group, in which culture medium was added; the second group was IN10018 at a concentration of 5µM; the third group was Docetaxel (MCE, classification number: HY-B0011, batch number: 111613) with a concentration of 0.1µM; and the fourth group was the combination group of IN10018 (5 µM) and Docetaxel (0.1µM). The drugs were mixed and cultured in a 5 % CO2 incubator at 37°C for 48 hours.
# After 48 hours of drug action, the cells were observed and photographed under a microscope. The photos were saved. Then the cells were collected for flow cytometry, and the cells were washed twice with flow buffer (PBS + 2% FBS). 0.5 µl of AF647 anti-calreticulin antibody (abcam, catalog number: ab196159, batch number: CR33676773) was added to each well, and fully mixed. The cells were incubated at 4 °C for 20 minutes in the dark. […] The mixture was incubated at room temperature in the dark for 15 minutes, and then analyzed on a flow cytometer.
# breast cancer 4T1 cells = experiment: Subcutaneous allograft tumor model of breast cancer 4T1 cells in BALB/c mice; type: in vivo
# Text: Mice: Female BALB/c mice aged 6-8 weeks were purchased from SHANGHAI SLAC LABORATORY ANIMAL CO. LTD. The assay began after the animals were adapted to the assay environment upon arrival. The animals were kept in IVC (independent ventilation system) cages (5 per cage) in an SPF animal room. All cages, padding and drinking water must be sterilized before use. All assay personnel should wear protective clothing and latex gloves when operating in the animal room. Cages, feed and drinking water were replaced twice a week. The feeding environment and lighting conditions were as follows: • Temperature: 20-26 °C • Humidity: 40-70% • Lighting period: 12 hours light, 12 hours no light • Cages: Made of polycarbonate, 300 mm × 180 mm × 150 mm. The padding was corn cobs, which was replaced twice a week. • Food: The assay animals had free access to food (dry pelleted food sterilized by irradiation) throughout the assay period. • Drinking water: Assay animals were free to drink sterile water. • Cage identification: The animal information card for each cage should indicate the number of animals in the cage, gender, strain, receipt date, dosing regimen, assay number, group and start date of the assay. • Animal identification: Assay animals were identified with ear tags.
# Breast cancer cell 4T1 (source: Nanjing Cobioer Biotechnology Co., Ltd., catalog number: CBP60352) was maintained and passaged by INXMED (Nanjing) Co., Ltd. The cells were cultured in a monolayer in vitro in RPMI-1640 medium with 10% fetal bovine serum in a 37 °C, 5% CO2 incubator. Trypsin-EDTA was used for routine digestion and passage treatment two to three times a week. When the cells were in the exponential growth phase and the adherent confluence reached 80%-90%, the cells were harvested and plated.
# 0.1 mL of cell suspension containing 2 x 10^5 cells was subcutaneously inoculated on the right back of each mouse. When the tumor volume reached ~52 mm^3 (10th day after cell inoculation), the mice were randomly divided into groups for drug administration according to the tumor volume. Table 9. Dosing regimen of the test substance in 4T1 mouse transplant tumor model
# The formulation and any modifications of this assay protocol had been assessed and approved by the IACUC of ArrayBridge. The use and welfare of assay animals were carried out in accordance with AAALAC regulations. The health status and mortality of animals were monitored daily, with routine checks including observation of tumor growth and the impact of drug treatment on the animals' daily behavior, such as activity, food and water intake (estimated by visual inspection), changes in body weight, physical signs, or any other abnormalities. The number of animal deaths and side effects in each group were recorded based on the number of animals in each group.
# If the animal's health condition continued to deteriorate, or if the tumor volume exceeded 3,000 mm^3, or there was a serious disease or pain, euthanasia should be carried out. In the following cases, the veterinarian was notified and euthanasia was performed: obvious weight loss, i.e., weight loss greater than 20%; inability to freely eat and drink; the average tumor volume of the control group reached 2000 mm^3, the assay was terminated.
# Tumor diameters were measured three times a week using calipers. The tumor volume was calculated using the formula: V = 0.5 × a × b^2, where a and b represent the long and short diameters of the tumor, respectively.
# Based on the tumor volume on the first day after grouping, the tumor growth inhibition rate TGI (%) was calculated according to the following formula: TGI (%) = [1 - (average tumor volume of a treatment group - average tumor volume of the treatment group at the beginning of treatment) / (average tumor volume of the solvent control group - average tumor volume of the solvent control group at the beginning of treatment)] × 100%. […]
smiles,measurement,setting,value
CC(=O)O[C@@]12CO[C@@H]1C[C@H](O)[C@@]1(C)C(=O)[C@H](O)C3=C(C)[C@@H](OC(=O)[C@H](O)[C@@H](NC(=O)OC(C)(C)C)c4ccccc4)C[C@@](O)([C@@H](OC(=O)c4ccccc4)[C@H]21)C3(C)C [Docetaxel],cell status under a microscope,colon cancer CT26 cells,poor
same,Tumor volume on day 0,"breast cancer 4T1 cells; baseline at grouping (10th day after inoculation), mean ± standard error, 6 mice per group",51.1 ± 13.2 mm^3
same,TGI,"breast cancer 4T1 cells; day 21 after administration, vs control group, DTX 10 mg/kg i.p. BIW, IN10018 25 mg/kg p.o. QD, MAX10181 120 mg/kg p.o. BID",14.9%
same,Tumor volume on day 21,"breast cancer 4T1 cells; day 21 after administration, DTX 10 mg/kg i.p. BIW, IN10018 25 mg/kg p.o. QD, MAX10181 120 mg/kg p.o. BID, mean ± standard error",1818.7 ± 644.0 mm^3
